ChEMBL document CHEMBL1201861, “Genomics of Drug Sensitity in Cancer screening data, Wellcome Trust Sanger Institute”

Assays:
Assay in all cases: cells
Hs-578T = assay type: functional, cell-based; settings: Homo sapiens
Description: SANGER: Inhibition of human Hs-578-T cell growth in a cell viability assay.

UMUC3 = assay type: functional, cell-based; settings: Homo sapiens;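 note: growth inhibition of human UM-UC-3 cells, read out with a cell viability assay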
Description: SANGER: Inhibition of human UM-UC-3 cell growth in a cell viability assay.

MHH-ES-1 = assay type: functional, cell-based; settings: Homo sapiens;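 note: cell growth inhibition measured by a cell viability assay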
Description: SANGER: Inhibition of human MHH-ES-1 cell growth in a cell viability assay.

NCI-H1573 = assay type: functional, cell-based; settings: Homo sapiens;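 note: growth inhibition of NCI-H1573 cells, read out with a cell viability assay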
Description: SANGER: Inhibition of human NCI-H1573 cell growth in a cell viability assay.

HCC1395 = assay type: functional, cell-based; settings: Homo sapiens;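 note: growth inhibition of HCC1395 cells, read out by a cell viability assay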
Description: SANGER: Inhibition of human HCC1395 cell growth in a cell viability assay.

NCI-H1563 = assay type: functional, cell-based; settings: Homo sapiens;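 note: growth inhibition of human NCI-H1563 cells, read out with a cell viability assay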
Description: SANGER: Inhibition of human NCI-H1563 cell growth in a cell viability assay.

COLO-741 = assay type: functional, cell-based; settings: Homo sapiens
Description: SANGER: Inhibition of human COLO-741 cell growth in a cell viability assay.

OE33 = assay type: functional, cell-based; settings: Homo sapiens;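 note: growth inhibition of human OE33 cells, measured by a cell viability assay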
Description: SANGER: Inhibition of human OE33 cell growth in a cell viability assay.

ChaGo-K-1 = assay type: functional, cell-based; settings: Homo sapiens;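 note: growth inhibition of ChaGo-K-1 cells, read out with a cell viability assay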
Description: SANGER: Inhibition of human ChaGo-K-1 cell growth in a cell viability assay.

Capan-2 = assay type: functional, cell-based; settings: Homo sapiens;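 note: Capan-2 cell growth inhibition, read out with a viability assay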
Description: SANGER: Inhibition of human Capan-2 cell growth in a cell viability assay.

ABC-1 = assay type: functional, cell-based; settings: Homo sapiens;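 note: growth inhibition of human ABC-1 cells, read out by a cell viability assay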
Description: SANGER: Inhibition of human ABC-1 cell growth in a cell viability assay.

D-336MG = assay type: functional, cell-based; settings: Homo sapiens
Description: SANGER: Inhibition of human D-336MG cell growth in a cell viability assay.

FTC-133 = assay type: functional, cell-based; settings: Homo sapiens
LoVo = assay type: functional, cell-based; settings: Homo sapiens;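 note: growth inhibition of human LoVo cells, read out with a cell viability assay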
Description: SANGER: Inhibition of human LoVo cell growth in a cell viability assay.

HCC1806 = assay type: functional, cell-based; settings: Homo sapiens;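 note: growth inhibition of the cancer cell line, determined with a cell viability assay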
Description: SANGER: Inhibition of human HCC1806 cell growth in a cell viability assay.

A204 = assay type: functional, cell-based; settings: Homo sapiens;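 note: growth inhibition of human A204 cells, read out with a cell viability assay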
Description: SANGER: Inhibition of human A204 cell growth in a cell viability assay.

GAMG = assay type: functional, cell-based; settings: Homo sapiens;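 note: cell growth inhibition measured by a viability assay in the GAMG human cell line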
Description: SANGER: Inhibition of human GAMG cell growth in a cell viability assay.

OE19 = assay type: functional, cell-based; settings: Homo sapiens;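 note: growth inhibition of OE19 cells, measured through a cell viability read-out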
Description: SANGER: Inhibition of human OE19 cell growth in a cell viability assay.

LCLC-97TM1 = assay type: functional, cell-based; settings: Homo sapiens;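 note: cell viability assay measuring growth inhibition of human LCLC-97TM1 cells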
Description: SANGER: Inhibition of human LCLC-97TM1 cell growth in a cell viability assay.

KYSE-70 cell line = assay type: functional, cell-based; settings: Homo sapiens;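 note: cell viability assay read-out, with IC50 expressing suppression of KYSE-70 cell growth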
Description: SANGER: Inhibition of human KYSE-70 cell growth in a cell viability assay.

FaDu = assay type: functional, cell-based; settings: Homo sapiens;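 note: cell viability readout of growth inhibition in FaDu cells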
Description: SANGER: Inhibition of human FADU cell growth in a cell viability assay.

UMC-11 = assay type: functional, cell-based; settings: Homo sapiens;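 note: growth inhibition of UMC-11 cells, read out with a cell viability assay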
Description: SANGER: Inhibition of human UMC-11 cell growth in a cell viability assay.

MKN-7 = assay type: functional, cell-based; settings: Homo sapiens;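 note: growth inhibition of MKN-7 cells, read out with a cell viability assay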
Description: SANGER: Inhibition of human MKN7 cell growth in a cell viability assay.

NY = assay type: functional, cell-based; settings: Homo sapiens
Description: SANGER: Inhibition of human NY cell growth in a cell viability assay.

HGC-27 = assay type: functional, cell-based; settings: Homo sapiens;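 note: growth inhibition of human HGC-27 cells, read out in a cell viability assay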
Description: SANGER: Inhibition of human HGC-27 cell growth in a cell viability assay.

NCI-H2228 = assay type: functional, cell-based; settings: Homo sapiens;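 note: growth inhibition of human NCI-H2228 cells, read out by a cell viability assay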
Description: SANGER: Inhibition of human NCI-H2228 cell growth in a cell viability assay.

Ca9-22 = assay type: functional, cell-based; settings: Homo sapiens;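 note: growth inhibition of Ca9-22 cells, read out with a cell viability assay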
Description: SANGER: Inhibition of human Ca9-22 cell growth in a cell viability assay.

MDA-MB-157 = assay type: functional, cell-based; settings: Homo sapiens
Description: SANGER: Inhibition of human MDA-MB-157 cell growth in a cell viability assay.

RO82-W-1 = assay type: functional, cell-based; settings: Homo sapiens;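 note: growth inhibition of human RO82-W-1 cells, measured with a cell viability assay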
Description: SANGER: Inhibition of human RO82-W-1 cell growth in a cell viability assay.

SK-MES-1 = assay type: functional, cell-based; settings: Homo sapiens;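 note: growth inhibition of human SK-MES-1 cells, read out with a cell viability assay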
Description: SANGER: Inhibition of human SK-MES-1 cell growth in a cell viability assay.

HT-1080 = assay type: functional, cell-based; settings: Homo sapiens
Description: SANGER: Inhibition of human HT-1080 cell growth in a cell viability assay.

CAL-27 = assay type: functional, cell-based; settings: Homo sapiens;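 note: Viability-based readout, IC50 reflecting inhibition of CAL-27 cell growth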
Description: SANGER: Inhibition of human CAL-27 cell growth in a cell viability assay.

PANC-08-13 = assay type: functional, cell-based; settings: Homo sapiens;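 note: cell growth inhibition, measured with a cell viability assay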
Description: SANGER: Inhibition of human PANC-08-13 cell growth in a cell viability assay.

T-24 = assay type: functional, cell-based; settings: Homo sapiens;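 note: growth inhibition of T-24 cells, read out with a cell viability assay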
Description: SANGER: Inhibition of human T-24 cell growth in a cell viability assay.

NB12 = assay type: functional, cell-based; settings: Homo sapiens;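 note: growth inhibition of human NB12 cells, read out by a cell viability assay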
Description: SANGER: Inhibition of human NB12 cell growth in a cell viability assay.

SCC-25 = assay type: functional, cell-based; settings: Homo sapiens;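 note: growth inhibition of SCC-25 cells, measured with a cell viability assay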
Description: SANGER: Inhibition of human SCC-25 cell growth in a cell viability assay.

BFTC-905 = assay type: functional, cell-based; settings: Homo sapiens
Description: SANGER: Inhibition of human BFTC-905 cell growth in a cell viability assay.

CWR22R = assay type: functional, cell-based; settings: Homo sapiens, 22Rv1;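 note: growth inhibition of 22Rv1 cells, read out with a cell viability assay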
Description: SANGER: Inhibition of human 22RV1 cell growth in a cell viability assay.

MOLT-13 = assay type: functional, cell-based; settings: Homo sapiens;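 note: IC50 for suppression of MOLT-13 cell growth, read out with a cell viability assay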
Description: SANGER: Inhibition of human MOLT-13 cell growth in a cell viability assay.

KYSE-180 = assay type: functional, cell-based; settings: Homo sapiens;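 note: growth inhibition of KYSE-180 cells, read out with a cell viability assay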
Description: SANGER: Inhibition of human KYSE-180 cell growth in a cell viability assay.

Panc1005 = assay type: functional, cell-based; settings: Homo sapiens;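 note: growth inhibition of human PANC-10-05 cells, measured by a cell viability assay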
Description: SANGER: Inhibition of human PANC-10-05 cell growth in a cell viability assay.

GCT = assay type: functional, cell-based; settings: Homo sapiens;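 note: GCT cell line proliferation inhibition, read out with a cell viability assay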
Description: SANGER: Inhibition of human GCT cell growth in a cell viability assay.

HCC1937 = assay type: functional, cell-based; settings: Homo sapiens;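 note: growth inhibition measured with a cell viability read-out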
Description: SANGER: Inhibition of human HCC1937 cell growth in a cell viability assay.

NB14 = assay type: functional, cell-based; settings: Homo sapiens;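 note: growth inhibition of NB14 cells measured with a cell viability assay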
Description: SANGER: Inhibition of human NB14 cell growth in a cell viability assay.

DBTRG-05MG = assay type: functional, cell-based; settings: Homo sapiens;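 note: cell viability assay measuring growth inhibition of human DBTRG-05MG cells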
Description: SANGER: Inhibition of human DBTRG-05MG cell growth in a cell viability assay.

LCLC-103H cell line = assay type: functional, cell-based; settings: Homo sapiens
Description: SANGER: Inhibition of human LCLC-103H cell growth in a cell viability assay.

MKN-45 = assay type: functional, cell-based; settings: Homo sapiens;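 note: growth inhibition of human MKN-45 cells, measured with a cell viability assay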
Description: SANGER: Inhibition of human MKN45 cell growth in a cell viability assay.

UACC-62 = assay type: functional, cell-based; settings: Homo sapiens;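 note: growth inhibition of human UACC-62 cells, read out by a cell viability assay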
Description: SANGER: Inhibition of human UACC-62 cell growth in a cell viability assay.

HT1197 = assay type: functional, cell-based, HT-1197; settings: Homo sapiens
Description: SANGER: Inhibition of human HT-1197 cell growth in a cell viability assay.

COR-L105 = assay type: functional, cell-based; settings: Homo sapiens;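 note: cell growth inhibition determined with a viability assay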
Description: SANGER: Inhibition of human COR-L105 cell growth in a cell viability assay.

SW1783 = assay type: functional, cell-based; settings: Homo sapiens;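 note: cell growth inhibition measured with a viability assay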
Description: SANGER: Inhibition of human SW1783 cell growth in a cell viability assay.

NCI-H520 = assay type: functional, cell-based; settings: Homo sapiens;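 note: growth inhibition of NCI-H520 cells, measured by a cell viability assay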
Description: SANGER: Inhibition of human NCI-H520 cell growth in a cell viability assay.

MeWo = assay type: functional, cell-based; settings: Homo sapiens;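 note: growth inhibition of MeWo cells, determined by a cell viability readout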
Description: SANGER: Inhibition of human Mewo cell growth in a cell viability assay.

BPH-1 = assay type: functional, cell-based; settings: Homo sapiens;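 note: cell viability assay measuring growth inhibition of human BPH-1 cells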
Description: SANGER: Inhibition of human BPH-1 cell growth in a cell viability assay.

Measured: IC50

C[C@]1(c2nc3c(C(N)=O)cccc3[nH]2)CCCN1 [VELIPARIB]
> 5 µM: all assays above
